Source: ChEMBL document CHEMBL1201862, “PubChem BioAssay data set” (2004)
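Each compound was tested at five concentrations against cells in 96-well plates for 48 hours. GI50 is the concentration that inhibits growth by half.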 Activity calls are given as the source filed them. Rule as the data show it: active = GI50 up to about 1.1 µM and inactive = higher.

Legend:
Assay in all cases: NCI-60 cell line screen, 48 h
DMS-114 = system: DMS-114
U-251 = system: U-251
SF-268 = system: SF-268
SK-MEL-28 = system: SK-MEL-28
HOP-62 = system: HOP-62
OVCAR-3 = system: OVCAR-3
HCT-116 = system: HCT-116
HCT-15 = system: HCT-15
NCI-H522 = system: NCI-H522
A549 = system: A549
SNB-19 = system: SNB-19
ACHN = system: ACHN
K562 = system: K562
EKVX = system: EKVX
HL-60 = system: HL-60
OVCAR-4 = system: OVCAR-4
KM12 = system: KM12
OVCAR-5 = system: OVCAR-5
HT-29 = system: HT-29
HCC 2998 = system: HCC 2998
SF-539 = system: SF-539
OVCAR-8 = system: OVCAR-8
SK-MEL-2 = system: SK-MEL-2
UACC-257 = system: UACC-257
RXF 393 = system: RXF 393
SR = system: SR
UO-31 = system: UO-31
M14 = system: M14
CCRF-CEM = system: CCRF-CEM
M19-MEL = system: M19-MEL
UACC-62 = system: UACC-62
DMS-273 = system: DMS-273
SF-295 = system: SF-295
SN12C = system: SN12C
A498 = system: A498
SW-620 = system: SW-620
NCI-H23 = system: NCI-H23
786-0 = system: 786-0
NCI-H226 = system: NCI-H226
NCI-H460 = system: NCI-H460
SK-MEL-5 = system: SK-MEL-5
TK-10 = system: TK-10
Malme-3M = system: Malme-3M
CAKI-1 = system: CAKI-1
SNB-78 = system: SNB-78
MOLT-4 = system: MOLT-4
LOX IMVI = system: LOX IMVI
IGROV-1 = system: IGROV-1
KM-20L2 = system: KM-20L2
LXFL 529 = system: LXFL 529
SNB-75 = system: SNB-75
COLO 205 = system: COLO 205
DLD-1 = system: DLD-1
HOP-92 = system: HOP-92
SK-OV-3 = system: SK-OV-3
RPMI-8226 = system: RPMI-8226
XF498 = system: XF498

For `Cc1ccccc1-n1c(C)nc2c1C(=O)c1ccccc1C2=O`, the GI50 (DMS-114) was 31.1 µM (inactive), the GI50 (U-251) was 72.1 µM (inactive) and the GI50 (SF-268) was 67.5 µM (inactive). For the same compound, the GI50 (SK-MEL-28) was > 100 µM (inactive), the GI50 (HOP-62) was > 100 µM (inactive) and the GI50 (OVCAR-3) was 24.8 µM (inactive). For the same compound, the GI50 (HCT-116) was 35.1 µM (inactive), the GI50 (HCT-15) was 34.8 µM and the GI50 (NCI-H522) was 21.2 µM (inactive). The GI50 (A549) was 54.6 µM (inactive), the GI50 (SNB-19) was 55.5 µM (inactive) and the GI50 (ACHN) was 53.3 µM (inactive). For the same compound, the GI50 (K562) was 37.7 µM (inactive), the GI50 (EKVX) was > 100 µM (inactive) and the GI50 (HL-60) was 20.9 µM (inactive). For the same compound, the GI50 (OVCAR-4) was 27.5 µM (inactive), the GI50 (KM12) was 58.9 µM (inactive) and the GI50 (OVCAR-5) was 72.3 µM (inactive). The GI50 (HT-29) was 37.2 µM (inactive), the GI50 (HCC 2998) was 37.1 µM (inactive) and the GI50 (SF-539) was 28.2 µM (inactive). The GI50 (OVCAR-8) was 47.9 µM (inactive), the GI50 (SK-MEL-2) was > 100 µM (inactive) and the GI50 (UACC-257) was 35.2 µM (inactive). For the same compound, the GI50 (RXF 393) was > 100 µM (inactive), the GI50 (SR) was 38.9 µM (inactive) and the GI50 (UO-31) was 39.2 µM (inactive). For the same compound, the GI50 (M14) was 42 µM (inactive), the GI50 (CCRF-CEM) was 50.2 µM (inactive) and the GI50 (M19-MEL) was 22.8 µM (inactive). For the same compound, the GI50 (UACC-62) was 47.1 µM (inactive), the GI50 (DMS-273) was 42.5 µM (inactive) and the GI50 (SF-295) was 67 µM (inactive). For the same compound, the GI50 (SN12C) was 52.4 µM (inactive), the GI50 (A498) was > 100 µM (inactive) and the GI50 (SW-620) was 40.5 µM (inactive). For the same compound, the GI50 (NCI-H23) was 35.4 µM (inactive), the GI50 (786-0) was 44.8 µM (inactive) and the GI50 (NCI-H226) was 48.3 µM (inactive). For the same compound, the GI50 (NCI-H460) was 36.1 µM (inactive), the GI50 (SK-MEL-5) was 22.1 µM (inactive) and the GI50 (TK-10) was > 100 µM (inactive). For the same compound, the GI50 (Malme-3M) was 15.3 µM (inactive), the GI50 (CAKI-1) was 42.7 µM (inactive) and the GI50 (SNB-78) was 58.2 µM (inactive). The GI50 (MOLT-4) was 32 µM (inactive).
For `c1ccc(C2N=NN(c3ccccc3)C2N2CCCCC2)cc1` (centres undefined), the GI50 (LOX IMVI) was > 100 µM (inactive), the GI50 (DMS-114) was > 100 µM (inactive) and the GI50 (U-251) was 56 µM (inactive). For the same compound, the GI50 (SF-268) was 46.5 µM (inactive), the GI50 (SK-MEL-28) was > 100 µM (inactive) and the GI50 (HOP-62) was 42.9 µM (inactive). For the same compound, the GI50 (OVCAR-3) was > 100 µM (inactive), the GI50 (HCT-116) was > 100 µM (inactive) and the GI50 (HCT-15) was > 100 µM. For the same compound, the GI50 (NCI-H522) was > 100 µM (inactive), the GI50 (A549) was > 100 µM (inactive) and the GI50 (SNB-19) was > 100 µM (inactive). The GI50 (IGROV-1) was 52.2 µM (inactive), the GI50 (ACHN) was > 100 µM (inactive) and the GI50 (K562) was > 100 µM (inactive). The GI50 (EKVX) was > 100 µM (inactive), the GI50 (HL-60) was > 100 µM (inactive) and the GI50 (OVCAR-4) was > 100 µM (inactive). The GI50 (KM12) was > 100 µM (inactive), the GI50 (OVCAR-5) was > 100 µM (inactive) and the GI50 (HT-29) was > 100 µM (inactive). For the same compound, the GI50 (HCC 2998) was > 100 µM (inactive), the GI50 (SF-539) was 55.8 µM (inactive) and the GI50 (KM-20L2) was > 100 µM (inactive). The GI50 (OVCAR-8) was > 10 µM (inactive), the GI50 (SK-MEL-2) was > 100 µM (inactive) and the GI50 (UACC-257) was > 100 µM (inactive). For the same compound, the GI50 (SR) was > 100 µM (inactive), the GI50 (UO-31) was > 100 µM (inactive) and the GI50 (LXFL 529) was > 100 µM (inactive). The GI50 (M14) was > 100 µM (inactive), the GI50 (CCRF-CEM) was > 100 µM (inactive) and the GI50 (M19-MEL) was > 100 µM (inactive). The GI50 (SNB-75) was 20 µM (inactive), the GI50 (UACC-62) was 67 µM (inactive) and the GI50 (SF-295) was 33.8 µM (inactive). For the same compound, the GI50 (COLO 205) was > 100 µM (inactive), the GI50 (DLD-1) was > 100 µM (inactive) and the GI50 (SN12C) was > 100 µM (inactive). The GI50 (HOP-92) was 17.3 µM (inactive), the GI50 (SW-620) was > 100 µM (inactive) and the GI50 (NCI-H23) was > 100 µM (inactive). For the same compound, the GI50 (786-0) was 64.7 µM (inactive), the GI50 (NCI-H226) was > 100 µM (inactive) and the GI50 (SK-OV-3) was 38.6 µM (inactive). The GI50 (RPMI-8226) was > 100 µM (inactive), the GI50 (SK-MEL-5) was > 100 µM (inactive) and the GI50 (TK-10) was > 100 µM (inactive). The GI50 (Malme-3M) was > 100 µM (inactive), the GI50 (CAKI-1) was > 100 µM (inactive) and the GI50 (SNB-78) was 75 µM (inactive). For the same compound, the GI50 (MOLT-4) was > 100 µM (inactive) and the GI50 (XF498) was 49.5 µM (inactive).
